Experimental data: publication PMC5218480 (PLoS ONE, 2017)

Test system: MV-4-11 cells
Assay: Gene expression microarray analysis (Affymetrix PrimeView) and GSEA
Format: cell-based, human
Design: RFU PODN (11730768_x_at) / Fold change /veh PODN (11730768_x_at) / RFU LINC00158 (11744669_a_at) / Fold change /veh LINC00158 (11744669_a_at) / RFU DUSP10 (11751237_a_at) / Fold change /veh DUSP10 (11751237_a_at) / RFU ID3 (11757404_x_at) / Fold change /veh ID3 (11757404_x_at) / RFU PLEKHG5 (11737974_s_at) / Fold change /veh PLEKHG5 (11737974_s_at) / RFU LRRC4B (11730491_at) / Fold change /veh LRRC4B (11730491_at) / RFU GIMAP4 (11747438_a_at) / Fold change /veh GIMAP4 (11747438_a_at) / RFU KRT8 (11758183_x_at) / Fold change /veh KRT8 (11758183_x_at) / RFU CNN1 (11734310_a_at) / Fold change /veh CNN1 (11734310_a_at) / RFU VPS37D (11726825_at) / Fold change /veh VPS37D (11726825_at) / RFU C10orf10 (11716522_x_at) / Fold change /veh C10orf10 (11716522_x_at) / RFU KIR2DL2 /// KIR2DL4 /// KIR2DL5A /// KIR2DL5B /// KIR2DS1 /// KIR2DS2 /// KIR2DS3 /// KIR2DS4 /// KIR3DL3 /// KIR3DL3 /// KIR3DS1 (11738374_at) / Fold change /veh KIR2DL2 /// KIR2DL4 /// KIR2DL5A /// KIR2DL5B /// KIR2DS1 /// KIR2DS2 /// KIR2DS3 /// KIR2DS4 /// KIR3DL3 /// KIR3DL3 /// KIR3DS1 (11738374_at) / RFU C1QL1 (11718748_at) / Fold change /veh C1QL1 (11718748_at) / RFU TMPRSS4 (11747572_a_at) / Fold change /veh TMPRSS4 (11747572_a_at) / RFU HAMP (11756126_x_at) / Fold change /veh HAMP (11756126_x_at) / RFU RNFT2 (11725882_a_at) / Fold change /veh RNFT2 (11725882_a_at) / RFU NR4A2 (11747474_a_at) / Fold change /veh NR4A2 (11747474_a_at) / RFU ABCC12 (11746883_a_at) / Fold change /veh ABCC12 (11746883_a_at) / RFU TMEM136 (11760407_x_at) / Fold change /veh TMEM136 (11760407_x_at) / RFU CLDN22 /// WWC2 (11732394_at) / Fold change /veh CLDN22 /// WWC2 (11732394_at) / RFU HLA-DPB1 (11760878_x_at) / Fold change /veh HLA-DPB1 (11760878_x_at) / RFU SPINT1 (11716480_a_at) / Fold change /veh SPINT1 (11716480_a_at) / RFU GAP43 (11754022_s_at) / Fold change /veh GAP43 (11754022_s_at) / RFU A4GNT (11735810_at) / Fold change /veh A4GNT (11735810_at) / RFU PRB3 (11715151_x_at) / Fold change /veh PRB3 (11715151_x_at) / RFU TUBB4B (11761932_at) / Fold change /veh TUBB4B (11761932_at) / RFU CAPN14 (11732068_a_at) / Fold change /veh CAPN14 (11732068_a_at) / RFU TMCC2 (11721928_a_at) / Fold change /veh TMCC2 (11721928_a_at) / RFU IRGQ (11745062_a_at) / Fold change /veh IRGQ (11745062_a_at) / RFU FAM174B (11720279_a_at) / Fold change /veh FAM174B (11720279_a_at) / RFU TMPRSS4 (11748680_a_at) / Fold change /veh TMPRSS4 (11748680_a_at) / RFU FAM212B (11763350_a_at) / Fold change /veh FAM212B (11763350_a_at) / RFU PLEKHG5 (11743358_a_at) / Fold change /veh PLEKHG5 (11743358_a_at) / RFU ZSCAN30 (11745921_a_at) / Fold change /veh ZSCAN30 (11745921_a_at) / RFU CMKLR1 (11741424_a_at) / Fold change /veh CMKLR1 (11741424_a_at) / RFU LOC101060620 /// MAPK8IP1 (11723275_at) / Fold change /veh LOC101060620 /// MAPK8IP1 (11723275_at) / RFU SPTSSB (11747773_x_at) / Fold change /veh SPTSSB (11747773_x_at) / RFU PRSS12 (11739890_at) / Fold change /veh PRSS12 (11739890_at) / RFU BIN1 (11741810_x_at) / Fold change /veh BIN1 (11741810_x_at) / RFU WNT11 (11732464_a_at) / Fold change /veh WNT11 (11732464_a_at) / RFU C10orf10 (11716521_a_at) / Fold change /veh C10orf10 (11716521_a_at) / RFU C5orf56 (11738089_at) / Fold change /veh C5orf56 (11738089_at) / RFU CYB561 (11721691_x_at) / Fold change /veh CYB561 (11721691_x_at) / RFU ANKRD19P (11752326_a_at) / Fold change /veh ANKRD19P (11752326_a_at) / RFU OR2T12 /// OR2T33 /// OR2T8 (11738714_s_at) / Fold change /veh OR2T12 /// OR2T33 /// OR2T8 (11738714_s_at) / RFU VCAN (11748164_a_at) / Fold change /veh VCAN (11748164_a_at) / RFU JSRP1 (11732532_at) / Fold change /veh JSRP1 (11732532_at) / RFU KRTAP10-11 (11738290_x_at) / Fold change /veh KRTAP10-11 (11738290_x_at) / RFU MYO3A (11730013_a_at) / Fold change /veh MYO3A (11730013_a_at) / RFU EBF3 (11725865_a_at) / Fold change /veh EBF3 (11725865_a_at) / RFU CAMK2N1 (11719241_x_at) / Fold change /veh CAMK2N1 (11719241_x_at) / RFU C5orf56 (11738088_a_at) / Fold change /veh C5orf56 (11738088_a_at) / RFU OLFML3 (11715873_a_at) / Fold change /veh OLFML3 (11715873_a_at) / RFU LOC100653217 /// NTM (11731650_a_at) / Fold change /veh LOC100653217 /// NTM (11731650_a_at) / RFU MAPK11 (11762145_a_at) / Fold change /veh MAPK11 (11762145_a_at) / RFU FIZ1 (11724087_x_at) / Fold change /veh FIZ1 (11724087_x_at) / RFU OASL (11726364_x_at) / Fold change /veh OASL (11726364_x_at) / RFU SOX15 (11748057_x_at) / Fold change /veh SOX15 (11748057_x_at) / RFU CD79A (11719716_a_at) / Fold change /veh CD79A (11719716_a_at) / RFU HIST1H1D (11736915_at) / Fold change /veh HIST1H1D (11736915_at) / RFU CASKIN2 (11723855_a_at) / Fold change /veh CASKIN2 (11723855_a_at) / RFU LOC730098 (11760151_x_at) / Fold change /veh LOC730098 (11760151_x_at) / RFU OR4N2 (11742367_at) / Fold change /veh OR4N2 (11742367_at) / RFU PRRT2 (11749266_a_at) / Fold change /veh PRRT2 (11749266_a_at) / RFU SNX32 (11753110_a_at) / Fold change /veh SNX32 (11753110_a_at) / RFU CDHR5 (11726645_a_at) / Fold change /veh CDHR5 (11726645_a_at) / RFU RCAN1 (11760418_a_at) / Fold change /veh RCAN1 (11760418_a_at) / RFU FAM167A (11723789_a_at) / Fold change /veh FAM167A (11723789_a_at) / RFU FAM26E (11764081_at) / Fold change /veh FAM26E (11764081_at) / RFU ISYNA1 (11749810_s_at) / Fold change /veh ISYNA1 (11749810_s_at) / RFU ACY1 (11761880_at) / Fold change /veh ACY1 (11761880_at) / RFU 11764098_at / Fold change /veh 11764098_at / RFU SAMD14 (11745864_x_at) / Fold change /veh SAMD14 (11745864_x_at) / RFU NPB (11741838_a_at) / Fold change /veh NPB (11741838_a_at) / RFU TMPRSS6 (11731388_a_at) / Fold change /veh TMPRSS6 (11731388_a_at) / RFU KRTAP10-2 (11738614_at) / Fold change /veh KRTAP10-2 (11738614_at) / RFU ARHGAP8 /// PRR5-ARHGAP8 (11727945_x_at) / Fold change /veh ARHGAP8 /// PRR5-ARHGAP8 (11727945_x_at) / RFU KRTAP5-7 /// NADSYN1 (11734609_at) / Fold change /veh KRTAP5-7 /// NADSYN1 (11734609_at) / RFU RASL12 (11751679_a_at) / Fold change /veh RASL12 (11751679_a_at) / RFU CDKN2B (11736163_a_at) / Fold change /veh CDKN2B (11736163_a_at) / RFU PRF1 (11729649_at) / Fold change /veh PRF1 (11729649_at) / RFU, ZNF638 /// ZNF638-IT1 / Fold change vs veh, ZNF638 /// ZNF638-IT1 / RFU, PANK3 / Fold change vs veh, PANK3 / RFU, SH3YL1 / Fold change vs veh, SH3YL1 / RFU, ZEB2 / Fold change vs veh, ZEB2 / RFU, NRIP1 / Fold change vs veh, NRIP1 / RFU, PTTG1IP / Fold change vs veh, PTTG1IP / RFU, CAPN2 / Fold change vs veh, CAPN2 / RFU, MED14 / Fold change vs veh, MED14 / RFU, SNORA58 / Fold change vs veh, SNORA58 / RFU, C1orf63 / Fold change vs veh, C1orf63 / RFU, LRRFIP1 / Fold change vs veh, LRRFIP1 / RFU, NDUFAF7 / Fold change vs veh, NDUFAF7 / RFU, SLC12A2 / Fold change vs veh, SLC12A2 / RFU, IBTK / Fold change vs veh, IBTK / RFU, ESF1 / Fold change vs veh, ESF1 / Fold change vs veh, TMEM50B / RFU, TAOK1 / Fold change vs veh, TAOK1 / RFU, ACBD3 / Fold change vs veh, ACBD3 / RFU, TMA16 / Fold change vs veh, TMA16 / RFU, RWDD3 / Fold change vs veh, RWDD3 / RFU, BCAT1 / Fold change vs veh, BCAT1 / RFU, EDEM3 / Fold change vs veh, EDEM3 / RFU, TMEM33 / Fold change vs veh, TMEM33 / RFU, WDR75 / Fold change vs veh, WDR75 / RFU, AHCTF1 / Fold change vs veh, AHCTF1 / RFU, TFRC / Fold change vs veh, TFRC / RFU, ZDHHC17 / Fold change vs veh, ZDHHC17 / RFU, NOM1 / Fold change vs veh, NOM1 / RFU, ARL8B / Fold change vs veh, ARL8B / RFU, ZBTB11 / Fold change vs veh, ZBTB11 / RFU, TAMM41 / Fold change vs veh, TAMM41 / RFU, KIAA1704 /// LOC100996395 / Fold change vs veh, KIAA1704 /// LOC100996395 / RFU, ING1 / Fold change vs veh, ING1 / RFU, TRMT61B / Fold change vs veh, TRMT61B / RFU, FUBP3 / Fold change vs veh, FUBP3 / RFU, TP53 / Fold change vs veh, TP53 / RFU, TNKS2 / Fold change vs veh, TNKS2 / RFU, ZFP14 / Fold change vs veh, ZFP14 / RFU, ACTR2 / Fold change vs veh, ACTR2 / RFU, PPP3R1 / Fold change vs veh, PPP3R1 / RFU, PIK3R1 / Fold change vs veh, PIK3R1 / RFU, HNRNPA1 / Fold change vs veh, HNRNPA1 / RFU, RNF170 / Fold change vs veh, RNF170 / RFU, ZNF28 / Fold change vs veh, ZNF28 / RFU, RNGTT / Fold change vs veh, RNGTT / RFU, OGT / Fold change vs veh, OGT / RFU, BRD1 / Fold change vs veh, BRD1 / RFU, MARS / Fold change vs veh, MARS / RFU, ZNF655 / Fold change vs veh, ZNF655 / RFU, FAHD1 / Fold change vs veh, FAHD1 / RFU, BDP1 / Fold change vs veh, BDP1 / RFU, LRRCC1 / Fold change vs veh, LRRCC1 / RFU, ARID1A / Fold change vs veh, ARID1A / RFU, ZNF146 / Fold change vs veh, ZNF146 / RFU, ZNF330 / Fold change vs veh, ZNF330 / RFU, GPN3 / Fold change vs veh, GPN3 / RFU, C9orf123 / Fold change vs veh, C9orf123 / RFU, N4BP2L2 / Fold change vs veh, N4BP2L2 / RFU, ARFIP1 / Fold change vs veh, ARFIP1 / RFU, FAM179B / Fold change vs veh, FAM179B / RFU, BCL10 / Fold change vs veh, BCL10 / RFU, UHRF1BP1L / Fold change vs veh, UHRF1BP1L / RFU, BET1 / Fold change vs veh, BET1 / RFU, CNOT2 / Fold change vs veh, CNOT2 / RFU, ZNF268 / Fold change vs veh, ZNF268 / Fold change vs veh, ZNF507 / RFU, DGCR2 / Fold change vs veh, DGCR2 / RFU, WDSUB1 / Fold change vs veh, WDSUB1 / Fold change vs veh, HSP90B1 /// MIR3652 / RFU, ADSS / Fold change vs veh, ADSS / RFU, GK / Fold change vs veh, GK / RFU, ZNF148 / Fold change vs veh, ZNF148 / RFU, TAF9 / Fold change vs veh, TAF9 / RFU, SLC1A5 / Fold change vs veh, SLC1A5 / RFU, SLMO2 / Fold change vs veh, SLMO2 / RFU, ABCC4 / Fold change vs veh, ABCC4 / RFU, LOC101060439 /// RAP1B / Fold change vs veh, LOC101060439 /// RAP1B / RFU, RFX7 / Fold change vs veh, RFX7 / RFU, GTPBP10 / Fold change vs veh, GTPBP10 / RFU, CNEP1R1 / Fold change vs veh, CNEP1R1 / RFU, BIVM-ERCC5 /// ERCC5 / Fold change vs veh, BIVM-ERCC5 /// ERCC5 / RFU, ILF3 / Fold change vs veh, ILF3 / RFU 11762660_at / Fold change /veh 11762660_at / RFU VCAN (11757783_s_at) / Fold change /veh VCAN (11757783_s_at) / RFU DDX43 (11728927_at) / Fold change /veh DDX43 (11728927_at) / RFU KRT8 (11758188_x_at) / Fold change /veh KRT8 (11758188_x_at) / RFU NKD1 (11759106_at) / Fold change /veh NKD1 (11759106_at) / RFU SRD5A1 (11742802_a_at) / Fold change /veh SRD5A1 (11742802_a_at) / RFU TPSAB1 /// TPSB2 (11721975_s_at) / Fold change /veh TPSAB1 /// TPSB2 (11721975_s_at) / RFU GSTM3 (11746129_a_at) / Fold change /veh GSTM3 (11746129_a_at) / RFU IL23R (11737362_x_at) / Fold change /veh IL23R (11737362_x_at) / RFU TMEM51 (11727254_a_at) / Fold change /veh TMEM51 (11727254_a_at) / RFU PIWIL2 (11732686_x_at) / Fold change /veh PIWIL2 (11732686_x_at) / RFU ORM1 (11744905_x_at) / Fold change /veh ORM1 (11744905_x_at) / RFU CCDC152 (11743942_at) / Fold change /veh CCDC152 (11743942_at) / RFU ECM1 (11717891_a_at) / Fold change /veh ECM1 (11717891_a_at) / RFU IL23R (11748794_a_at) / Fold change /veh IL23R (11748794_a_at) / RFU TNFAIP8L3 (11732012_x_at) / Fold change /veh TNFAIP8L3 (11732012_x_at) / RFU MBOAT4 (11741988_at) / Fold change /veh MBOAT4 (11741988_at) / RFU 11764193_at / Fold change /veh 11764193_at / RFU TMEM53 (11763286_at) / Fold change /veh TMEM53 (11763286_at) / RFU MAGEB2 (11727129_at) / Fold change /veh MAGEB2 (11727129_at) / RFU TMEM200A (11744735_a_at) / Fold change /veh TMEM200A (11744735_a_at) / RFU CCDC152 (11751479_a_at) / Fold change /veh CCDC152 (11751479_a_at) / RFU FAM211A (11726209_a_at) / Fold change /veh FAM211A (11726209_a_at) / RFU RGS16 (11746705_a_at) / Fold change /veh RGS16 (11746705_a_at) / RFU VCAN (11755009_s_at) / Fold change /veh VCAN (11755009_s_at) / RFU RHOB (11743442_s_at) / Fold change /veh RHOB (11743442_s_at) / RFU RGS16 (11720943_a_at) / Fold change /veh RGS16 (11720943_a_at) / RFU RGS16 (11720944_at) / Fold change /veh RGS16 (11720944_at) / RFU, VPS4B / Fold change vs veh, VPS4B / RFU, CREB1 / Fold change vs veh, CREB1 / RFU, DNAJC13 / Fold change vs veh, DNAJC13 / RFU, GNAQ / Fold change vs veh, GNAQ / RFU, CDK5R1 / Fold change vs veh, CDK5R1 / RFU, ZRANB3 / Fold change vs veh, ZRANB3 / RFU, CUL4A / Fold change vs veh, CUL4A / RFU, CCNY / Fold change vs veh, CCNY / RFU, UFL1 / Fold change vs veh, UFL1 / RFU, COG3 / Fold change vs veh, COG3 / RFU, DIAPH2 / Fold change vs veh, DIAPH2 / RFU, SKA2 / Fold change vs veh, SKA2 / RFU, AFF3 / Fold change vs veh, AFF3 / RFU, LMF1 / Fold change vs veh, LMF1 / RFU, IPO11 / Fold change vs veh, IPO11 / RFU, DFFB / Fold change vs veh, DFFB / RFU, FOXP1 / Fold change vs veh, FOXP1 / RFU, CARD8 / Fold change vs veh, CARD8 / RFU, STRN3 / Fold change vs veh, STRN3 / RFU, ADK / Fold change vs veh, ADK / RFU, RASSF2 / Fold change vs veh, RASSF2 / RFU, WIPF1 / Fold change vs veh, WIPF1 / RFU, LARP1B / Fold change vs veh, LARP1B / RFU, RASA1 / Fold change vs veh, RASA1 / RFU, RB1 / Fold change vs veh, RB1 / RFU, PPFIA1 / Fold change vs veh, PPFIA1 / RFU, MAT2A / Fold change vs veh, MAT2A / RFU, CCT5 / Fold change vs veh, CCT5 / RFU, WDR92 / Fold change vs veh, WDR92 / RFU, CUX1 / Fold change vs veh, CUX1 / RFU, TTC7A / Fold change vs veh, TTC7A / RFU, TMEM135 / Fold change vs veh, TMEM135 / RFU, DEPTOR / Fold change vs veh, DEPTOR / RFU, CPM / Fold change vs veh, CPM / RFU, DNAJB6 / Fold change vs veh, DNAJB6 / RFU, CACNA2D3 / Fold change vs veh, CACNA2D3 / RFU, DTX4 / Fold change vs veh, DTX4 / RFU, TFCP2 / Fold change vs veh, TFCP2 / RFU, GMCL1 /// GMCL1P1 / Fold change vs veh, GMCL1 /// GMCL1P1 / RFU, AEBP2 / Fold change vs veh, AEBP2 / RFU, SNHG1 /// SNORD22 /// SNORD25 /// SNORD26 /// SNORD27 /// SNORD28 /// SNORD29 /// SNORD31 / Fold change vs veh, SNHG1 /// SNORD22 /// SNORD25 /// SNORD26 /// SNORD27 /// SNORD28 /// SNORD29 /// SNORD31 / Fold change (Aza/veh), C12orf56 (ProbeSet 11735607_a_at) / Fold change (ACY-1035/veh), C12orf56 (ProbeSet 11735607_a_at) / Fold change (Aza/veh), FGFR1OP (ProbeSet 11751329_s_at) / Fold change (ACY-1035/veh), FGFR1OP (ProbeSet 11751329_s_at) / Fold change (Aza/veh), VPS36 (ProbeSet 11739960_a_at) / Fold change (ACY-1035/veh), VPS36 (ProbeSet 11739960_a_at) / RFU SYPL1 (11715823_x_at) / Fold change /veh SYPL1 (11715823_x_at) / RFU IGFBP7 (11715501_s_at) / Fold change /veh IGFBP7 (11715501_s_at) / RFU REEP3 (11722064_at) / Fold change /veh REEP3 (11722064_at) / RFU IGLL1 (11728026_x_at) / Fold change /veh IGLL1 (11728026_x_at): dose or concentration left out as unconfirmed
Conditions: MV-4-11 cells, 48 hours

## Nc1ccc(-c2cccs2)cc1NC(=O)c1ccc2c(c1)cc(C1CC1)n2CCN1CCOCC1 [ACY-1035]
  Fold change /veh SOX15 (11748057_x_at): 0.91
